Data on four compounds can be found in ChEMBL document CHEMBL3044899, “Effect of chloro and fluoro groups on the antimicrobial activity of 2,5-disubstituted 4-thiazolidinones: a comparative study” (2012).

The source made the active and inactive calls. The rule behind the calls is not given here.

In experiment [1] the test system is Bacillus subtilis. Briefly: Antibacterial activity against Bacillus subtilis MTCC 121 at 100 ug/ml by cup plate method. In kind it is functional. The note with it: read-out: DIZ.
The test system of experiment [2] is Pseudomonas aeruginosa. Briefly: Antibacterial activity against Pseudomonas aeruginosa MTCC 2453 at 100 ug/ml by cup-plate method. The format is functional. The note with it: read-out: DIZ.
The test system of experiment [3] is Staphylococcus aureus. Briefly: Antibacterial activity against Staphylococcus aureus MTCC 96 at 100 ug/ml by cup-plate method. In kind it is functional. The note with it: read-out: DIZ.
The subject of experiment [4] is Pseudomonas aeruginosa. Briefly: Antibacterial activity against Pseudomonas aeruginosa MTCC 2453 by cup-plate method. The format is functional, organism-based.
The subject of experiment [5] is Escherichia coli. Briefly: Antibacterial activity against Escherichia coli MTCC 739 by cup-plate method. The format is functional, organism-based.
For experiment [6], the system named is Bacillus subtilis. Briefly: Antibacterial activity against Bacillus subtilis MTCC 121 at 50 ug/ml by cup plate method. The format is functional. The note with it: read-out: DIZ.
The subject of experiment [7] is Staphylococcus aureus. Briefly: Antibacterial activity against Staphylococcus aureus MTCC 96 at 200 ug/ml by cup-plate method. The note with it: read-out: DIZ. In kind it is functional.
In experiment [8] the test system is Staphylococcus aureus. Briefly: Antibacterial activity against Staphylococcus aureus MTCC 96 at 50 ug/ml by cup-plate method. The format is functional. The note with it: read-out: DIZ.
The test system of experiment [9] is Pseudomonas aeruginosa. Briefly: Antibacterial activity against Pseudomonas aeruginosa MTCC 2453 at 200 ug/ml by cup-plate method. The format is functional. The note with it: read-out: DIZ.
In experiment [10] the test system is Bacillus subtilis. Briefly: Antibacterial activity against Bacillus subtilis MTCC 121 at 300 ug/ml by cup plate method. The note with it: read-out: DIZ. The format is functional.
Experiment [11] has as its system Pseudomonas aeruginosa. Briefly: Antibacterial activity against Pseudomonas aeruginosa MTCC 2453 at 50 ug/ml by cup-plate method. The format is functional. The note with it: read-out: DIZ.
The test system of experiment [12] is Escherichia coli. Briefly: Antibacterial activity against Escherichia coli MTCC 739 at 100 ug/ml by cup-plate method. The note with it: read-out: DIZ. The format is functional.
The test system of experiment [13] is Escherichia coli. Briefly: Antibacterial activity against Escherichia coli MTCC 739 at 300 ug/ml by cup-plate method. The format is functional. The note with it: read-out: DIZ.
In experiment [14] the test system is Pseudomonas aeruginosa. Briefly: Antibacterial activity against Pseudomonas aeruginosa MTCC 2453 at 300 ug/ml by cup-plate method. The note with it: read-out: DIZ. In kind it is functional.
Experiment [15] has as its system Bacillus subtilis. Briefly: Antibacterial activity against Bacillus subtilis MTCC 121 at 200 ug/ml by cup plate method. The format is functional. The note with it: read-out: DIZ.
Experiment [16] deals with Staphylococcus aureus. Briefly: Antibacterial activity against Staphylococcus aureus MTCC 96 at 300 ug/ml by cup-plate method. The format is functional. The note with it: read-out: DIZ.
The subject of the next experiment is Candida albicans. Briefly: Antifungal activity against Candida albicans MTCC 227 at 50 to 300 ug/ml by cup-plate method. The format is functional, organism-based.
In experiment [17] the test system is Bacillus subtilis. Briefly: Antibacterial activity against Bacillus subtilis MTCC 121 by cup plate method. In kind it is functional, organism-based.
The test system of experiment [18] is Staphylococcus aureus. Briefly: Antibacterial activity against Staphylococcus aureus MTCC 96 by cup-plate method. In kind it is functional, organism-based.
Experiment [19] deals with Escherichia coli. Briefly: Antibacterial activity against Escherichia coli MTCC 739 at 200 ug/ml by cup-plate method. In kind it is functional. The note with it: read-out: DIZ.
Experiment [20] concerns Escherichia coli. Briefly: Antibacterial activity against Escherichia coli MTCC 739 at 50 ug/ml by cup-plate method. In kind it is functional. The note with it: read-out: DIZ.

Regarding `O=C(O)c1cn(C2CC2)c2cc(N3CCNCC3)c(F)cc2c1=O` [CIPROFLOXACIN], the values for the zone of inhibition at 100 µg/mL in the experiment with Bacillus subtilis [1], with Pseudomonas aeruginosa [2] and with Staphylococcus aureus [3] were 15 mm, 15 mm and 14 mm, respectively.

For `O=C1N/C(=N\c2cccc(Cl)c2)S/C1=C\c1ccc(Cl)cc1`, the Activity result in the experiment on Pseudomonas aeruginosa [4], in the experiment on Escherichia coli [5], with Bacillus subtilis [17] and in the experiment on Staphylococcus aureus [18] was “Dose-dependent effect” throughout. Besides, the zone of inhibition at 50 µg/mL in the experiment on Bacillus subtilis [6], in the experiment on Staphylococcus aureus [8], with Pseudomonas aeruginosa [11] and with Escherichia coli [20] was 7 mm in each case. In addition, the zone of inhibition at 100 µg/mL in the experiment with Bacillus subtilis [1] came out at 8 mm; in the experiment on Pseudomonas aeruginosa [2], 8 mm; in the experiment on Escherichia coli [12] it was 9 mm; with Staphylococcus aureus [3], 8 mm. The zone of inhibition at 200 µg/mL in the experiment with Staphylococcus aureus [7] is 9 mm; in the experiment with Pseudomonas aeruginosa [9] it was 8 mm; in the experiment on Bacillus subtilis [15], 10 mm; in the experiment on Escherichia coli [19], 9 mm. The zone of inhibition at 300 µg/mL in the experiment with Bacillus subtilis [10] is 10 mm; with Escherichia coli [13], 9 mm; in the experiment on Pseudomonas aeruginosa [14], 8 mm; with Staphylococcus aureus [16] it was 10 mm. Also, the result in the experiment with Candida albicans was inactive.

In the case of `O=C1N/C(=N\c2ccc(F)c(Cl)c2)S/C1=C\c1ccccc1Cl`, the Activity entry in the experiment with Pseudomonas aeruginosa [4], with Escherichia coli [5], in the experiment with Bacillus subtilis [17] and in the experiment with Staphylococcus aureus [18] was “Dose-dependent effect” each time. Further, the zone of inhibition at 50 µg/mL with Bacillus subtilis [6] is 10 mm; with Staphylococcus aureus [8], 10 mm; in the experiment on Pseudomonas aeruginosa [11] it was 10 mm; in the experiment on Escherichia coli [20], 8 mm. Also, the zone of inhibition at 100 µg/mL in the experiment with Bacillus subtilis [1] turned out to be 12 mm; with Pseudomonas aeruginosa [2] it was 10 mm; in the experiment with Escherichia coli [12], 8 mm; in the experiment on Staphylococcus aureus [3], 11 mm. For the same compound, the zone of inhibition at 200 µg/mL turned out to be 12 mm in the experiment on Staphylococcus aureus [7], 12 mm with Pseudomonas aeruginosa [9], 14 mm with Bacillus subtilis [15] and 9 mm in the experiment on Escherichia coli [19]. Also, the zone of inhibition at 300 µg/mL was determined as 14 mm in the experiment on Bacillus subtilis [10], 10 mm in the experiment with Escherichia coli [13], 12 mm in the experiment on Pseudomonas aeruginosa [14] and 14 mm with Staphylococcus aureus [16]. For the same compound, the result in the experiment with Candida albicans was inactive.

As to `O=C1N/C(=N\c2ccc(F)c(Cl)c2)S/C1=C\c1cccc([N+](=O)[O-])c1`, the Activity result in the experiment with Pseudomonas aeruginosa [4], in the experiment on Escherichia coli [5], in the experiment with Bacillus subtilis [17] and in the experiment with Staphylococcus aureus [18] was “Dose-dependent effect” in each case. Besides, the zone of inhibition at 50 µg/mL with Bacillus subtilis [6] came out at 12 mm; with Staphylococcus aureus [8], 11 mm; in the experiment with Pseudomonas aeruginosa [11], 8 mm; with Escherichia coli [20] it was 7 mm. The zone of inhibition at 100 µg/mL with Bacillus subtilis [1] came to 12 mm; in the experiment with Pseudomonas aeruginosa [2], 10 mm; with Escherichia coli [12], 8 mm; in the experiment on Staphylococcus aureus [3], 12 mm. The zone of inhibition at 200 µg/mL in the experiment with Staphylococcus aureus [7] came out at 14 mm; with Pseudomonas aeruginosa [9], 11 mm; in the experiment on Bacillus subtilis [15] it was 14 mm; in the experiment with Escherichia coli [19], 9 mm. For the same compound, the zone of inhibition at 300 µg/mL in the experiment on Bacillus subtilis [10] stood at 15 mm; with Escherichia coli [13] it was 10 mm; in the experiment on Pseudomonas aeruginosa [14], 12 mm; with Staphylococcus aureus [16], 16 mm. Moreover, in the experiment with Candida albicans, the result was inactive.
